Laboratory results as given in a melting point compilation (Tetko et al.; mined from patent text by program, amines drawn as free bases though some values may be those of a salt).

Row | Compound | melting point
1 | COC(=O)c1ccc(OCCNC(=O)C2Cc3ccccc3N2S(=O)(=O)c2ccc(-c3cc(C(F)(F)F)ccc3Cl)cc2)cc1F (stereo not given) | 84 to 85 °C
2 | COc1c(-c2ccccc2)c2ccc(-c3ccc(C(C)C)cc3)cc2oc1=O | 85.5 °C
3 | O=S(=O)(Nc1cccc(CCOCc2csc(-c3ccc(OC(F)(F)F)cc3)n2)c1)C(F)(F)F | 115 to 116 °C
4 | COc1cc2c(cc1OC)C(Oc1ccccc1C#N)CN(C)C2 (stereo not given) | 147 to 148 °C
5 | CC(=O)NCC1CN(c2ccc(N3CCN(c4nc5cc(F)ccc5o4)CC3)c(F)c2)C(=O)O1 (stereo not given) | 226 to 228 °C
6 | Nc1ccccc1Oc1c(C(=O)O)[nH]c2ccccc12 | 217 to 218 °C
7 | CNC(=S)NCCCSCc1c[nH]cn1 | 118 to 120 °C
8 | CCOc1ccc(-c2cn(C)c(SCC)n2)cc1 | 98.2 °C
9 | Cn1cc(S(=O)(=O)Cl)c(=O)c2ccc(Cl)cc21 | > 300 °C
10 | CC(C)(C)OC(=O)N1CCN(C(=O)SCc2ccc(O[Si](C)(C)C(C)(C)C)cc2)CC1 | 53 to 54 °C
11 | CCC(=O)NCC=C1CCc2ccc3nc(C)oc3c21 | 214 to 216 °C
12 | O=C1c2c(Cl)cccc2-n2cnc(-c3nc(C4CC4)no3)c2[C@@H]2CCCN12 | 213 to 214 °C
13 | CC(=O)N(C(C)=O)c1c(OCc2ccccc2)cc(Br)cc1[N+](=O)[O-] | 148 °C
14 | Cc1ccc(OCC#CI)cn1 | 155 to 157 °C
15 | Cc1ccc(C(=O)c2cc3cc(OCc4ccccc4)ccc3[nH]2)cc1 | 199 to 200 °C
16 | COc1ccc(C(=O)O)cc1OC(C)(C)C | 177 to 178 °C
17 | Cc1ccccc1-n1cc(-c2ccccc2)c(CC(=O)O)n1 | 177 °C
18 | CCN(CC)CCNc1nc2cccnc2n(-c2ccc(Cl)cc2)c1=O | 149 to 150 °C
19 | COc1cc(CBr)c(Br)cc1OCc1ccccc1 | 103 to 105 °C
20 | CCCc1ccc2nc(Cl)cn2n1 | 73.9 to 80 °C
21 | CCCCCCCC/C=C\c1ccc(C(=O)NOCc2ccccc2)cc1 | 70 to 71 °C
22 | CCCCOc1cc2ccc(C(=O)O)cc2cc1OCCCC | 168 to 169 °C
23 | CN(Cc1cc2c(=O)c(C(=O)NCc3ccc(Cl)cc3)cn(C)c2o1)CC(O)c1nccs1 (stereo not given) | 114 to 116 °C
24 | CCOC(=O)c1c(C)nsc1NC(=O)NC | 187 to 189 °C
25 | CCc1nc2c(cnn2CC)c(NC2CCOCC2)c1CNC(=O)c1cccc(C(=O)NCc2ccc(F)c(-c3cccc(CN(C)CCN(C)C)c3)c2)c1 | 126 to 129 °C

Row | Compound | melting point
26 | COc1c(Cl)cccc1N1CN(C)C(=S)n2ncnc21 | 208 to 210 °C
27 | NC(=O)CCN1CC2CN(Cc3ccccc3)CC(C1)O2 | 157 to 159 °C
28 | NS(=O)(=O)c1cc2[nH]c(Cc3ccccc3Cl)nc2cc1Cl | 223 to 226 °C
29 | O=c1[nH]c2cc3nc(-c4ccncc4)[nH]c3cc2[nH]c1=O | > 300 °C
30 | C=CCCCCOc1ccc(OCCCCC=C)cc1 | 29 to 30 °C
31 | CCCCn1nc(C(C)(F)F)nc1Cc1ccc(-c2ccccc2-c2nnn[nH]2)nc1 | 180 to 182 °C
32 | CCOC(=O)c1nnc2ccc(NC(C)C)cc2c1O | 170 to 171 °C
33 | Cc1nc2c(N)nc3ccccc3c2n1OC(C)C | 243 °C
34 | COc1ccc(-c2cc(C(=O)NCc3ccccn3)c(=O)n(C)n2)cc1 | 122 to 123 °C
35 | Cc1nnc(N2N=C(c3ccc([N+](=O)[O-])cc3)c3cc4c(cc3CC2C)OCO4)s1 (stereo not given) | 101 to 102 °C
36 | Nc1ncc(-c2ccc([N+](=O)[O-])cc2-c2cccc(Cl)c2Cl)c(N)n1 | 237 to 239 °C
37 | N#Cc1ccc(N2C(=O)N(CCF)C3(CCOCC3)C2=O)cc1C(F)(F)F | 192 to 193 °C
38 | COc1cccc(S)c1S(N)(=O)=O | 166 °C
39 | CN(Cc1ccc(NC(=O)C2=Cc3cc(-c4ccc(Cl)cc4)ccc3S(=O)(=O)CC2)cc1)C1CCC(=O)CC1 | 197 to 200 °C
40 | NN(CCO)C(=O)Nc1ccc(Cl)cc1 | 141 to 142 °C
41 | CCN(CC)CCOc1ccc(NC(=O)C#Cc2ccc(Cl)cc2Cl)cc1Cl | 98 to 100 °C
42 | NS(=O)(=O)c1ccc(-c2noc(-c3cnn4c(C(F)F)cc(-c5ccc(Cl)cc5)nc34)n2)s1 | 259 °C
43 | N#Cc1cc(-c2ccoc2)c2ccc(COc3cc(F)cc(-c4ccccc4)c3)cc2n1 | 150 to 152 °C
44 | CC(=O)CCc1ccc2c(c1)Cc1cc([N+](=O)[O-])ccc1-2 | 159 to 162 °C
45 | CC=C(c1ccc(N(C)C)cc1)c1ccc(N(C)C)cc1 | 99 to 101 °C
46 | CCOC(=O)C(C)OCC#Cc1nc(Cl)ccc1N (stereo not given) | 70 °C
47 | Cc1c(Cc2nc(C(=O)O)cs2)n(S(=O)(=O)c2cccc(C(C)(C)C)c2)c2ccc(C(F)(F)F)cc12 | 60 °C
48 | CNC(c1ccnc(F)c1)C(O)c1cccc(C(F)(F)F)c1 (stereo not given) | 99 to 102 °C
49 | COc1cc(C=C(C)C(=O)O)ccc1O | 144 to 145 °C
50 | Cc1cc(NC(=O)C2=C(O)CN(C)S(=O)(=O)N2C)no1 | 189 to 192 °C

Row | Compound | melting point
51 | CCN1OCC(=Cc2cc(C(C)(C)C)c(O)c(C(C)(C)C)c2)C1=O | 189 to 191 °C
52 | C=CCOC(=O)COc1cccc(NC(=O)NCNC(=O)c2ccccc2C(=O)c2ccccc2)c1 | 147 to 149 °C
53 | CC1=C(C(=O)Nc2ccccc2)OCCO1 | 85 to 87 °C
54 | Cc1cccc(C(=O)CC(=O)C2CCCCC2)c1O | 42 to 43 °C
55 | CCOC(=O)CC1COc2c(OC)ccc(C(=O)Nc3ccccc3)c21 (stereo not given) | 93 to 95 °C
56 | CCCCCCC1([N+](=O)[O-])C=CC(C(=O)O)=CC1 (stereo not given) | 106 to 108 °C
57 | Cc1cc(C)c(C)c(COc2cccc(-c3coc(C(=O)NNC(=O)c4ccc(O)c(C#N)c4)c3-c3ccccc3)c2)c1C | 242 to 247 °C
58 | Clc1nc(Cl)nc(C2CC2)n1 | 106 to 107 °C
59 | Cc1cc(OCc2sc(-c3ccc(C(F)(F)F)cc3)nc2C)ccc1/C=C/C(=O)O | 200 to 203 °C
60 | N#Cc1cc(-c2nc3cncnc3s2)ccc1Sc1ccccc1F | 178 to 180 °C
61 | NC(=O)c1ccc(F)c2c1CC(N(CCCCc1c[nH]c3ccc(F)cc13)CC1CC1)CO2 (stereo not given) | 115 °C
62 | C/C(=C(\C#N)C(N)=S)N1CCc2ccccc2C1 | 244 to 245 °C
63 | C[C@@H]1CCCN1CCc1ccc2cc(Br)ccc2n1 | 49 to 50 °C
64 | Cc1c(Br)nc(Br)c(=O)n1C | 119 to 120 °C
65 | CC(C)CC1(CC(=O)NO)CC(=O)N(CCc2ccccc2)C1=O (stereo not given) | 136 to 137 °C
66 | COc1cccc([C@H]2O[C@H](CC(=O)NS(C)(=O)=O)C(=O)N(CC(C)(C)CO)c3ccc(Cl)cc32)c1OC | 221 to 223 °C
67 | O=C(O)Cc1c(C(=O)c2ccncc2)[nH]c2cc(Cl)ccc12 | 256 to 257 °C
68 | Cn1c(C(F)(F)F)cc(=O)n(-c2nc(Cl)c(C#N)cc2F)c1=O | 146 to 148 °C
69 | CCOC(=O)N1CCCC2(OCCO2)C1Cc1c[nH]c2ccccc12 (stereo not given) | 122 to 125 °C
70 | CSC1CCn2c(CCc3ccccc3)nc3cccc1c32 (stereo not given) | 62.1 to 74.1 °C
71 | O=C1OC(=O)c2c1c1c3ccccc3[nH]c1c1c2c2cccnc2n1C1OC(CO)C(O)C(O)C1O (stereo not given) | > 300 °C
72 | COC(=O)c1cccc2c1ccn2S(=O)(=O)c1ccc(C)cc1 | 145 to 147 °C
73 | Cc1cccc(C2=C(c3ccc(S(C)(=O)=O)cc3)OC3(CCCCC3)C2=O)c1 | 154 to 155 °C
74 | CCOC(=O)Nc1cnc(NCCCOc2cccc(CN3CCCCC3)c2)[nH]c1=O | 171 to 173 °C
75 | COc1cc(C(=O)N2Cc3ccc(C(=O)NCc4ccccc4)n3Cc3ccccc32)ccc1-c1ccccc1C | 170 to 174 °C

Row | Compound | melting point
76 | Nc1cc(-c2c(-c3cccc(Cl)c3)nc3ccc(Cl)nn23)ccn1 | 268 to 269 °C
77 | CCC(CC)C(O)C(O)C(CC1CCCCC1)NC(=O)C(Cc1c[nH]cn1)NC(=O)C(CC(=O)C(C)(C)C)Cc1ccccc1 (stereo not given) | 160 °C
78 | COC(=O)c1ccc(-c2cc(-c3ccccc3)on2)cc1 | 201 to 202 °C
79 | C=CCOC(=O)/C(=N\O)c1csc(N)n1 | 184 to 185 °C
80 | Cc1c(C)c(-c2cccc(CO)c2)c(C)c(C)c1O | 152 to 153 °C
81 | CON1C=C2N=Nc3cc(C)cnc3N2C1 | 213 to 214 °C
82 | CS(=O)(=O)C(=C1CN(C(c2ccccc2)c2ccccc2)C1)c1cccc(N2CCCC2)c1 | 153 °C
83 | NC(C(=O)O)c1ccc(C(=O)O)c(O)c1CCCc1ccccc1 (stereo not given) | > 250 °C
84 | COc1ccc(CNc2ncc[nH]2)cc1OC1CCCC1 | 114 to 115 °C
85 | Cc1nc(Br)n(COCc2ccccc2)c1Sc1ccccc1 | 55 °C
86 | CC1SC(=O)NN=C1c1ccc2c(c1)C(=NN(C)c1ccccc1)C(=O)N2 (stereo not given) | 260 °C
87 | COC(=O)[C@H](CC(C)C)NC(=O)[C@@H](O)[C@@H](Cc1ccc(SC)cc1)NC(=O)OCc1ccccc1 | 130 to 132 °C
88 | FC(F)(F)c1cc(Cl)c(-n2cc(C#CBr)c(C(F)(F)F)n2)c(Cl)c1 | 92 to 94 °C
89 | CCCCN1C(=O)C2CC(c3ccc(N)cc3)(C2)C1=O | 178 to 179 °C
90 | Fc1cccc(F)c1C1=N[C@@H](c2ccc(-c3ccc(S)cc3)cc2)CO1 | 133 to 135 °C
91 | CC(C)c1nn(-c2ccc(C(F)(F)F)cn2)cc1CCCCOc1ccccc1CC(=O)O | 125 to 126 °C
92 | Cc1c(C)c2c(c(C)c1Br)C(c1ccc(C(C)C)cc1)CO2 (stereo not given) | 86 to 87 °C
93 | CCCc1c(O)cc2oc3cccn3c(=O)c2c1O | 170 to 171 °C
94 | Cc1n[nH]c(/C=C/c2ccccc2)n1 | 131 to 134 °C
95 | C=C(C)OC(=O)N1c2ccncc2NC(=O)C1C (racemic) | 170 to 171 °C
96 | COC(=O)CCCc1cc2nc(Cl)ccc2n1S(=O)(=O)c1cc(OC)ccc1OC | 102 °C
97 | COc1ccc(CC(C)N)cc1S(N)(=O)=O (stereo not given) | 180 °C
98 | C=CCN(CC=C)c1nc(NC(=O)C=C(C)C)n2oc(=O)nc2n1 | 165 to 166 °C
99 | CCCCCCCCCCOc1ccc(Br)cc1OCCCCCCCCCC | 39.5 to 40 °C
100 | N#Cc1c(N2CCN(C(=O)c3cccs3)CC2)c2sccc2n(CC(=O)c2ccccc2)c1=O | 300 °C
